Key:
Type in all cases: cell-based
[1] = tested on: RT-112 (FGFR3-Tacc3 fusion) cells; assay: Cell proliferation assay (CellTiterGlo), RT-112 cells; conditions: Homo sapiens, RT-112, 72 h, RT112 cells, inhibition of cell growth, intracellular ATP (CellTiterGlo)
Procedure, shortened: (§1)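 Cells seeded in duplicate (SNU-16 463c/well; UM-UC-14, DMS-114, RT-112 1000c/well) in RPMI with 10% heat-inactivated FBS, 1% L-glutamine. Exposure to compound at varying concentrations or DMSO for 72 hours. Growth measured by CellTiterGlo ATP luminescence; IC50 derived after normalizing to vehicle-treated cells.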

[2] = tested on: UM-UC-14 (FGFR3-S249C) cells; assay: Cell proliferation assay (CellTiterGlo), UM-UC-14 cells; conditions: UMUC14, 72 h, inhibition of cell growth, intracellular ATP (CellTiterGlo)
Procedure, shortened: as §1

[3] = tested on: SNU-16 (FGFR2-amplification) cells; assay: Cell proliferation assay (CellTiterGlo), SNU-16 cells; conditions: Homo sapiens, SNU-16, 72 h, inhibition of cell growth, intracellular ATP (CellTiterGlo)
Text: The following is a non-limiting example that describes a cell proliferation assay used to determine the biological activity of the compounds of the present disclosure. More specifically, the assay as used to assess the ability of the compounds to inhibit cell proliferation.
Briefly, SNU-16 (FGFR2-amplification) cells, were resuspended at 18,520c/ml mL in RPMI containing 10% Heat Inactivated FBS, 1% L-glutamine and dispensed in duplicate (463c/well) into 384 well plates. UM-UC-14 (FGFR3-S249C) cells were resuspended at 40.000c/ml mL in RPMI containing 10% Heat Inactivated FBS, 1% L-glutamine and dispensed in duplicate (1000c/well) into 384 well plates. DMS-114 (FGFR1 overexpression) cells and were resuspended at 40,000c/ml mL in RPMI containing 10% Heat Inactivated FBS, 1% L-glutamine and dispensed in duplicate (1000c/well) into 384 well plates. RT-112 (FGFR3-Tacc3 fusion) cells were resuspended at 40,000c/ml mL in RPMI containing 10% Heat Inactivated FBS, 1% L-glutamine and dispensed in duplicate (1000c/well) into 384 well plates. To determine the effect of the compounds of the present disclosure on cell proliferation, SNU-16, UM-UC-14, DMS-114 and RT112 cells were incubated for 72 hours in the presence of vehicle control (DMSO) or a compound of the present disclosure at varying concentrations. Inhibition of cell growth was subsequently determined by luminescent quantification (Envision by Perkin Elmer) of intracellular ATP content using CellTiterGlo (Promega), according to the protocol provided by the manufacturer. To determine the IC50 values, the vehicle-treated cells were normalized as viable cells and analyzed using the CDD Vault software (Collaborative Drug Discovery, Burlingame, CA).

[4] = tested on: DMS-114 (FGFR1 overexpression) cells; assay: Cell proliferation assay (CellTiterGlo), DMS-114 cells; conditions: Homo sapiens, 72 hours, inhibition of cell growth, intracellular ATP (CellTiterGlo)
Procedure, shortened: as §1

| IC50 [3] | Compound | IC50 [1] | IC50 [2] | IC50 [4] |
| --- | --- | --- | --- | --- |
| 0.02 to 0.1 µM | Cc1nc2ccc(Oc3ccc4ncc(-c5cnn(CC6CCN(S(C)(=O)=O)CC6)c5)nc4c3Cl)cc2[nH]1 [Compound 43] | 0.02 to 0.1 µM | 0.02 to 0.1 µM | ≥ 0.4 µM |
| ≥ 0.4 µM | Cc1nc2ccc(Oc3cc4nc(-c5cnn(CC6CCOCC6)c5)cnc4cc3Cl)cc2[nH]1 [Compound 48] | ≥ 0.4 µM | ≥ 0.4 µM | ≥ 0.4 µM |
| 0.02 to 0.1 µM | Cc1nc2ccc(Oc3ccc4ncc(-c5cnn(CC6CC(F)(F)C6)c5)nc4c3Cl)c(F)c2[nH]1 [Compound 68] | 0.02 to 0.1 µM | 0.02 to 0.1 µM | ≥ 0.4 µM |
| ≥ 0.4 µM | Cc1nc2ccc(Oc3cc4nc(-c5cnn(CC6CCN(C)CC6)c5)cnc4cc3C)cc2[nH]1 [Compound 50] | ≥ 0.4 µM | ≥ 0.4 µM | ≥ 0.4 µM |
